{"source": "patent US20230071637A1", "about": "“ORAL SUSPENSION WITH ANTIULCEROUS AND CHEMOPROTECTIVE EFFECT ON COLON CANCER AND PREPARATION METHOD THEREOF” (CENTRO NACIONAL DE INVESTIGACIONES CIENTIFICAS, priority 2020, published 2023)", "key": {"[1]": {"tested_on": "ethanol-induced gastric ulcer", "test": "Ethanol-induced gastric ulcer in rats", "assay_type": "in vivo, Sprague-Dawley rats", "details": "20 mg/kg oral single dose", "text": "The composition obtained in example 2 (FAMC) was subjected to a preclinical test with animals, in which its antiulcer effect was compared with the antiulcer effects of the registered fatty alcohol tablet (RAT), and suspensions of Fatty Alcohols (FA) and microcrystalline cellulose (MC), the latter two prepared with doses of FA and MC equal to the doses of both substances in the FAMC suspension. The experimental model used in this trial was the induction of gastric ulcers in rats by ethanol. […] After completing the quarantine, the animals were randomly distributed into 11 experimental groups (10 rats/group): a negative control that only received the vehicle and 10 groups in which the ulcer was induced with 60% ethanol, among these a control positive not treated with any antiulcer agent, 8 groups treated with the substances to be evaluated and a group treated with Omeprazole as a reference substance, as shown in Table 2. […] The use of a negative control group (not subjected to damage with ethanol), as well as a positive control group (subjected to damage and without treatment with any substance) made it possible to verify the functioning of the model and compare the anti-ulcer efficacy of the substances evaluated. […]"}, "[2]": {"tested_on": "gastric ulcer induced by pylorus ligation", "test": "Gastric ulcer induced by pylorus ligation in rats", "assay_type": "in vivo, Sprague-Dawley rats", "text": "The composition obtained in example 2 (FAMC) was subjected to a preclinical test with animals, in which its antiulcer effect was compared with the antiulcer effects of the registered fatty alcohol tablet (RAT), and suspensions of Fatty Alcohols (FA) and microcrystalline cellulose (MC), the latter two prepared with doses of FA and MC equal to the doses of both substances in the FAMC suspension. The experimental model used in this test was that of the induction of gastric ulcers in rats by ligation of the pylorus, which is an acid-dependent model, unlike the model presented in the previous example. […] After completing the quarantine, the animals were randomly distributed into 11 experimental groups (10 rats/group): a negative control that only received the vehicle and 10 groups in which the ulcer was induced by ligation of the pylorus, among these a positive control not treated with any antiulcer agent, 8 groups treated with the substances to be evaluated and a group treated with Omeprazole as a reference substance, as shown in Table 3. The suspensions were administered as they are, while a suspension with 1% acacia gum was prepared to administer the tablet. The use of a negative control group (not subjected to pylorus ligation), as well as that of a positive control (subjected to damage and without treatment with any substance) made it possible to verify the functioning of the model and compare the anti-ulcer efficacy of the substances evaluated. All treatments were administered orally, as a single dose, by intragastric intubation. The selected doses are within the range of effective doses verified in previous preliminary experiences and the dose of omeprazole (20 mg/kg) has also been effective in this model. To induce gastric ulcer, the animals were fasted for 24 hours prior to the experiment, with free access to water. One hour after the administration of single doses of the vehicle, and the different treatments, the animals were anesthetized by intraperitoneal injection with sodium thiopental (35 mg/kg), a 2 cm-long incision was made in the anterior third of the line abdominal media, locating the stomach and ligating the pyloric sphincter with silk suture number 2 and the abdominal wall was sutured with silk thread. One hour later, the rats were sacrificed in a halothane atmosphere, the stomachs were removed and the gastric juice collected in test tubes. The latter was centrifuged at 3000 rpm, the supernatant separated and quantified in ml."}}, "note": "Marks after values point to notes of the source that are not given here."}
{"smiles": "COc1ccc2[nH]c([S+]([O-])Cc3ncc(C)c(OC)c3C)nc2c1", "note": "(stereo not drawn) [OMP, Omeprazole]", "values": [{"measurement": "Ulcer Index", "setting": "[1]; 1 h before 60% ethanol, mean ± SEM", "result": "35.97 ± 14.48*** mm^2"}, {"measurement": "I (%) inhibition of ulcer index", "setting": "[1]; vs positive control", "result": 78.8, "unit": "%"}, {"measurement": "Ulcer Index", "setting": "[2]; 20 mg/kg oral single dose, 1 h before pylorus ligation, mean ± SEM", "result": "3,9 ± 0,5 *** mm^2"}, {"measurement": "Gastric juice volume", "setting": "[2]; 20 mg/kg oral single dose, supernatant of gastric juice 1 h after ligation, mean ± SEM", "result": "3,4 ± 0,4 ml"}, {"measurement": "I (%) inhibition of ulcer index", "setting": "[2]; 20 mg/kg oral single dose, vs positive control", "result": "83,2%"}, {"measurement": "volume of gastric juice (effect in words)", "setting": "[2]; pylorus ligation, doses tested, vs positive control", "result": "reduced"}]}
